For one experiment, the system named is NT2-N cells. In words: Adhesion activity of tau oligomers to NT2-N cell surface (fluorescence microscopy). The conditions noted are these: on ice 30 minutes, no membrane permeabilization. It counts as cell-based, human. Here is the method: Cal-520 AM was loaded to the NT2-N cells prepared in the above (4-1) by the procedure of the above (4-2), exposed to the tau oligomer sample (10 μl/ml) prepared in the above (1-3) and incubated on ice for 30 minutes. Subsequently, the cells were washed 3 times with DPBS(−) (137 mM of NaCl, 2.68 mM of KCl, 1.47 mM of KH2PO4, 8.06 mM of Na2HPO4) and fixed with 4% paraformaldehyde at room temperature for 15 minutes. After thorough washing with DPBS(−) (10 minutes×3 times), blocking was done with 1% BSA and 3% donkey serum/DPBS for 30 minutes. Then, the anti-phosphorylated tau antibody (anti-pTau (paired pS409, pS412, pS413), AnaSpec, #AS-55416) (1:1500 dilution) as the primary antibody was reacted at room temperature for 1 hour, and Alexa594-labelled anti-mouse IgG (Jackson Immuno Research, #711-585-152) (1:1500 dilution) as a secondary antibody was reacted at room temperature for 30 minutes, to thereby carry out immunostaining. The stained cells were observed using a fluorescence microscope (BZ-X710, Keyence Corporation).
The HT-tau oligomer sample prepared in the above (1-4), instead of the tau oligomer sample prepared in the above (1-3), was exposed to the NT2-N cells by the same procedure as in the above (5-1). After thorough washing, fluorescence microscopic observation was carried out.

The next experiment has as its system NMDA receptor. Kind of experiment: NMDAR-based sandwich ELISA. Type of experiment: binding, mouse. The conditions noted are these: tau oligomer solution of 10^−11 g/ml or less. Background: In an ELISA, binding on a coated surface is turned into a signal by an enzyme label.
Experiment [1] has as its system postsynaptic NMDAR and AMPAR. In words: Western blot of NMDA and AMPA receptor amounts on the synapse, brain slices of tau knockout mice. Conditions: tau knockout mouse brain slice. How it is done:
(§1) The brain slice specimens were frozen and disrupted in a 50-fold volume of homogenizing buffer (4 mM of HEPES, 2 mM of EGTA, 0.32 M of sucrose, pH 7.4) using a Teflon® homogenizer. The disrupted tissue solution was centrifuged at 4° C., 1,000×g for 15 minutes to thereby collect the supernatant, and the supernatant was further centrifuged at 4° C., 12,000×g for 15 minutes to thereby collect membrane fractions (pellets). The obtained membrane fractions were dissolved in tris-buffered saline containing 0.5% Triton X-100 (50 mM of Tris, 500 mM of NaCl, pH 7.4) and were centrifuged at 4° C., 20,000×g for 15 minutes. The supernatant was used as a 0.5% Triton X-100-soluble membrane fraction sample and the pellet was used as a 0.5% Triton X-100-insoluble membrane fraction sample. The western blot was carried out on the 0.5% Triton X-100-insoluble membrane fraction sample to quantify the AMPA receptor (GluA2 subunit) and the NMDA receptors (NR2a and NR2b subunits). The antibodies used were an anti-Glu2 antibody (Alomone Labs, #AGC-073) (1:1000 dilution), an anti-NR2A antibody (Alomone Labs, #AGC-002) (1:1000 dilution), and an anti-NR2B antibody (Alomone Labs, #AGC-003) (1:1000 dilution).
In the tau knockout mice, the reduction of NMDARs and AMPARs on the synapse by the exposure of the tau oligomer sample was not observed.

The test system of experiment [2] is postsynaptic NMDAR and AMPAR. Kind of experiment: Western blot of NMDA and AMPA receptor amounts on the synapse, brain slices of aging C57BL/6 mice. The conditions noted are these: aging C57BL/6 brain slice, 0.5% Triton X-100-insoluble membrane fraction. More on the design: species or system mouse. How it is done:
As the molecule mechanism of NMDAR-LTD, it has been known that the AMPA receptors (hereinafter described as “AMPAR”) and/or the NMDA receptors (NMDAR) are incorporated into a cell by the endocytosis in the postsynaptic membrane caused by the activation of the NMDA receptors. Thus, an analysis was performed on the changes in amount of NMDARs and AMPARs on synapses in the brain slice specimens exposed to the tau oligomer sample and the brain slice specimens not exposed to the tau oligomer sample, prepared by the procedures of the above (2-1) and (2-2).
as §1, with “The supernatant was used as a 0.5% Triton X-100-soluble membrane fraction sample and the pellet was used as a 0.5% Triton X-100-insoluble membrane fraction sample.” left out, “The antibodies used were an anti-Glu2 antibody (Alomone Labs, #AGC-073) (1:1000 dilution), an anti-NR2A antibody (Alomone Labs, #AGC-002) (1:1000 dilution), and an anti-NR2B antibody (Alomone Labs, #AGC-003) (1:1000 dilution).” left out

The next experiment has as its target T1, NMDAR (Mus musculus, UniProt P35436+P35438+Q01097).
T1 construct: from tissue
Kind of experiment: Pull-down assay of HT-tau oligomer with membrane protein of tau knockout mouse brain. It counts as binding. Conditions: HT-tau oligomers immobilized on HaloTag beads, western blot anti-NR1. Here is the method:
Whether or not the tau oligomer and NMDAR directly bind and interact was confirmed by a pull-down assay using the HT-tau oligomer. Magne™ HaloTag beads (Promega Corporation, #G728A) (50 mg) were added to the HT-tau oligomer sample (100 μl) prepared in the above (1-4), and a binding reaction was carried out at 4° C. for 12 hours to thereby immobilize the HT-tau oligomers on the beads. Additionally, brain slice specimens were prepared from tau knockout mice (B6.129X1-Mapt^tm1Hnd/J, Jackson Laboratory) by the same procedure as in the above (2-1) and were homogenized in 50-fold volume of the lysis buffer (4 mM of HEPES, 2 mM of EGTA, 0.32 M of sucrose, 1% Protease Inhibitor Cocktail, 1% Phosphatase Inhibitor Cocktail (Nacalai Tesque Inc., #07575-51)), and the lysate was centrifuged at 4° C., 12,000×g for 15 minutes to thereby collect pellets. The obtained pellets were dissolved in a 2% cholic acid or 1% deoxycholate/TBS solution (25 mM of Tris-HCl, 150 mM of NaCl, pH 7.4) and the resultant was used as a membrane protein solution. […] The obtained tau oligomer-membrane protein complexes were applied to SDS-PAGE electrophoresis, and NMDARs were detected by the western blot. […]
For orientation: A western blot detects proteins with antibodies after separation by electrophoresis.

T1 sequence (P35436 23-1464, other chains not shown): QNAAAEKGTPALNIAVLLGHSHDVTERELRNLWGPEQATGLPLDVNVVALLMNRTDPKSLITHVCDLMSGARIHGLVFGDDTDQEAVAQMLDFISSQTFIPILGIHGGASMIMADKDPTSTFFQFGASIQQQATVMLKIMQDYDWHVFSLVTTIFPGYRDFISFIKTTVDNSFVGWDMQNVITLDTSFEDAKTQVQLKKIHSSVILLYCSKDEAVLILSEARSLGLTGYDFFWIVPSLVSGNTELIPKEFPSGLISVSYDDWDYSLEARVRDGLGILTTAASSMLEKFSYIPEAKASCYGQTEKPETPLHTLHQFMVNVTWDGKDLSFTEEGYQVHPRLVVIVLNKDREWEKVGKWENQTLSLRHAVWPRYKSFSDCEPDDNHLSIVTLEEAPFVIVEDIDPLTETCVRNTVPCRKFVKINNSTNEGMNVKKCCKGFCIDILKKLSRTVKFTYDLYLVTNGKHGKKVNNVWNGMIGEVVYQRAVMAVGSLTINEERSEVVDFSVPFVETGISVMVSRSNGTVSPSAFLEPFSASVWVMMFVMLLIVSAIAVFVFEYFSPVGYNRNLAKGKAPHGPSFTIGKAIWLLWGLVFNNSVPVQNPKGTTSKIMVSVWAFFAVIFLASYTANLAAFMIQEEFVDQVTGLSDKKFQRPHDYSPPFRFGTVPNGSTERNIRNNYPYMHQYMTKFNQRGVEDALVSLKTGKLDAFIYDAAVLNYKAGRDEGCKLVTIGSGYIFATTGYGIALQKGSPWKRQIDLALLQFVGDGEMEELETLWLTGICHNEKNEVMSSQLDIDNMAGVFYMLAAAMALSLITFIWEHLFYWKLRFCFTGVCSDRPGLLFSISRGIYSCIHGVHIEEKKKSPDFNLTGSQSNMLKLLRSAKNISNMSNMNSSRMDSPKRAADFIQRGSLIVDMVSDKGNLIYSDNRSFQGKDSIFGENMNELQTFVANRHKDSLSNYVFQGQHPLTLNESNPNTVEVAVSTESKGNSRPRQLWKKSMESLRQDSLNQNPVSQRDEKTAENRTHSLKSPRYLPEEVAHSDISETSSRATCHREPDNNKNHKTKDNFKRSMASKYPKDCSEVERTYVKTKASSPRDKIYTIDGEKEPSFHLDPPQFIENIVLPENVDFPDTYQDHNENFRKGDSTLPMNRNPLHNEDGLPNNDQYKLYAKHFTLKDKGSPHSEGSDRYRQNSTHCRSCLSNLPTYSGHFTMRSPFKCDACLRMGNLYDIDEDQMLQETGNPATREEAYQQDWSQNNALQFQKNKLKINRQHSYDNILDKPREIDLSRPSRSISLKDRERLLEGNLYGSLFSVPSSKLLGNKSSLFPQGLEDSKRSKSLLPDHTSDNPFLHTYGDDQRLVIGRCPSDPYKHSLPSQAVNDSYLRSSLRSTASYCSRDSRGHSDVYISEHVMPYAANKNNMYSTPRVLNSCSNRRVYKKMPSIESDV
T1 sequence (Q01097 27-1482, other chains not shown): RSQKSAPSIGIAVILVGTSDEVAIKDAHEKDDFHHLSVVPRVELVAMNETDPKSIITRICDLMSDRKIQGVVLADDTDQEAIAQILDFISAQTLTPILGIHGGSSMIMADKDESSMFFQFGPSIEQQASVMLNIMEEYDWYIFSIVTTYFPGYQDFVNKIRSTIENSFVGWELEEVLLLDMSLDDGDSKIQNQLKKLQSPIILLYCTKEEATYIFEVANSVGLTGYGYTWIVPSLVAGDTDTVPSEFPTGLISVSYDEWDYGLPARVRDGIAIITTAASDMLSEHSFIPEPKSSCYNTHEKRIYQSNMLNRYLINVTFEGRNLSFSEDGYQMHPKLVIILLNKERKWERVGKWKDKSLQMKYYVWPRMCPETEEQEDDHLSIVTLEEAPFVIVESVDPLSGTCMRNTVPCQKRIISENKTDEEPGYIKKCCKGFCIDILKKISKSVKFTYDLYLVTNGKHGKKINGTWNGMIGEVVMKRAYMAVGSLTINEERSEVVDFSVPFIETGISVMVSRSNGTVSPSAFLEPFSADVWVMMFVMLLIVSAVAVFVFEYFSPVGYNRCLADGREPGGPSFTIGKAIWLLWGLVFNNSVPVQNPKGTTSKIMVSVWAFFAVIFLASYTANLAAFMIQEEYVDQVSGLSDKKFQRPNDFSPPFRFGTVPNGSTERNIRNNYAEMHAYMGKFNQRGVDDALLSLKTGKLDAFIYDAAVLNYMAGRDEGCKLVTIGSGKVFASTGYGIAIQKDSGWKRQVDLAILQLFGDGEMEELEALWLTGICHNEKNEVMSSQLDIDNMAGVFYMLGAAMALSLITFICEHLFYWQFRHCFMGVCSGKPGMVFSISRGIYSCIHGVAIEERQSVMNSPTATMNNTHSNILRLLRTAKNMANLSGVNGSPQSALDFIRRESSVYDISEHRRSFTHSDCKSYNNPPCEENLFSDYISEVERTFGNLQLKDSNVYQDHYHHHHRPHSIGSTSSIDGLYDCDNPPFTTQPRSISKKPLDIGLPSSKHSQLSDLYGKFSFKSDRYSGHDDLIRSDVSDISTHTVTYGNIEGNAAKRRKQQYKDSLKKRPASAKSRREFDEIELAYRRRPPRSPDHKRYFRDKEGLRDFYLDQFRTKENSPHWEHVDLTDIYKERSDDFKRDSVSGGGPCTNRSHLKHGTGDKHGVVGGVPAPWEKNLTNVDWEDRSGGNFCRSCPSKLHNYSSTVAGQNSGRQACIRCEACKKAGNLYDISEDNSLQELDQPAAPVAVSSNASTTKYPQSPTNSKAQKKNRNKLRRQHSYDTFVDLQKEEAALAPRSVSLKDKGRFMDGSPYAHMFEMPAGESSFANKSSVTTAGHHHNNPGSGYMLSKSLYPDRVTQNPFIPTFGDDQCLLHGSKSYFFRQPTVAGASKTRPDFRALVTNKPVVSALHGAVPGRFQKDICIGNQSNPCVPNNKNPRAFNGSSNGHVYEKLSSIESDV

Take “tau oligomer: polymer of human tau 2N4R monomers, polymerized with mouse brain extract and ATP, collected as pellets”: the “adhesion to the cell surface” value in the experiment on NT2-N cells is “adhered in a patchy pattern”. In the experiment with NMDA receptor, the “binding of the tau oligomer to the NMDA receptor” value is listed as “increased in a concentration-dependent manner”. Also, in experiment [1], the “reduction of AMPARs on the synapse” value was “not observed” and the “reduction of NMDARs on the synapse” value is listed as “not observed”. The “amount of AMPARs on the postsynaptic site” value in experiment [2] (GluA2, normalized to aCSF) is listed as “reduced”. The “amount of NMDARs on the postsynaptic site” value in experiment [2] (NR2a and NR2b, normalized to aCSF) is on record as “reduced”. Further, in the experiment with NMDAR, the “binding of NMDAR in pull-down assay” value is “directly bound”.

Values taken from patent US20210341448A1, “SCREENING METHOD FOR THERAPEUTIC DRUG OR PROPHYLACTIC DRUG FOR TAUOPATHY AND DIAGNOSTIC METHOD FOR TAUOPATHY” (National Center for Geriatrics and Gerontology, priority 2018, published 2021).
